Measurements: patent US12016834B2, “Small molecule inhibitors of SLC25A1” (GEORGETOWN UNIVERSITY, priority 2017, dated 2024)

Tests used:
Assay type in all cases: cell-based, human
[1] = tested on: H1299 spheres; assay: Cell cycle analysis of spheres; conditions: after three days of treatment
Method: (§1) Flow cytometry. Tumor cells were trypsinized and washed in 1×PBS. The cells were then stained with the antibodies of choice: CD166-PE (Biolegend), CD133-647 (Biolegend), or CD44 (Biolegend), in 1% BAS-PBS. The cell cycles of monolayers or spheres of the cells were analyzed by fixing the cells in cold 75% ethanol. The annexin V (Biolegend) and propidium iodide (Biolegend) experiments were carried out.

[2] = tested on: MP1 cells; assay: Apoptosis by annexin V and PI flow cytometry
Method: as §1

[3] = tested on: phosphofructokinase (PFK); assay: Phosphofructokinase activity in cells; conditions: 3 hours
Method: (§2) Cells, reagents, antibodies, primers. The H1299 cell lines and other cell lines employed in this study were obtained from ATCC or from the tissue culture core facility at LCCC. Cells were grown in Dulbecco's Modified Eagle's Medium (DMEM, 25 mM glucose, with glutamine and pyruvate from Invitrogen; Carlsbad, CA) and supplemented with 10% fetal calf serum (FCS). […] The SLC25A1 specific shRNA vectors were purchased from Sigma. The vector expressing human SLC25A1 untagged or Flag-Myc epitope tagged were from Origene; Rockville, MD (#SC120727 and RC200657, respectively). The anti-SLC25A1 antibody used in immuno-blot was from Santa Cruz Biotech, #sc-86392 employed at 1:1000 dilution. Citrate, lactate, and PFK measurements were performed by using commercially available kits (Biovision (Milpitas, CA)).

[4] = tested on: H1299 cells; assay: Glycolysis: ECAR (Seahorse) and lactic acid levels
Method: as §2
Seahorse extracellular flux analyzer experiments. Cells derived from spheres or monolayer cultures were dissociated and plated overnight at 12,000 cells/well in DMEM with 10% FBS, 5 mM glucose, 1 mM pyruvate, 2 mM glutamine.
For the mitochondrial stress test, the media was replaced with DMEM without FBS or bicarbonate, containing 5 mM glucose, 1 mM pyruvate, 2 mM glutamine and placed in a CO2 free incubator at 37° C. for 1 hour, and then transferred to the Xf96 extracellular flux analyzer (Agilent; Santa Clara, CA). The program consisted of 3 measurements of OCR/ECAR before the injection of each drug: oligomycin (0.5 μM final concentration), FCCP (2 μM) and rotenone/antimycin (0.5 μM of each). For the glycolysis stress test, cells were plated overnight as above, and the media was washed twice the following day with DMEM without FBS, bicarbonate, glucose, glutamine or pyruvate, and incubated in this media in a CO2 free incubator with/without drug treatments at 37° C. for 4 hours. There were 3 measurements of OCR/ECAR before each injection: glucose (10 mM final concentration), oligomycin (0.5 […] (50 mM). For the analysis of glutamine oxidation, the protocol was the same as the glucose stress test, but with glutamine being the only compound injected (final concentration 4 mM) and OCR/ECAR measured for 60 minutes. When spheres were analyzed, they were dissociated with StemPro® Accutase® (Thermo Scientific; Waltham, MA) and plated under the same conditions as above as for the monolayers the day before the assay (H1299 spheres), or in stem cell media (See Stem Cell Media) with the wells coated in 15 μL of 2% geltrex diluted in DMEM:F12 (Thermo Scientific). The results were normalized to cell number.

[5] = tested on: H1299 cells; assay: Proliferation / viability in monolayer (2D) cultures
Method: Cellular proliferation and cytotoxicity assays. The proliferative capacity of cells was assessed by plating cells in triplicate at a concentration of 2,000 to 10,000 cells/well in 96 well plates in triplicate, with or without drug treatment for 48 hours. The cells were then washed with 1×PBS and fixed with cold 100% methanol at−20° C. for 20 minutes. Methanol was washed off and the cells were stained with 0.5% crystal violet dissolved in 25% methanol and water at 4° C. for 20 minutes. The staining was washed off using deionized (DI) water and the plate was dried overnight. On the second day, 100 mM sodium citrate in 50% ethanol and 50% water was added to the wells and absorbance at 550 nm was measured and corrected with readings at 405 nm. In other experiments, cell viability was assessed by trypan blue exclusion and visual count of the live cells was performed.

[6] = tested on: H1299 cells; assay: Sphere forming / self-renewal assay
Method: Growth of monolayers and sphere cultures. Tumor cell lines were grown as monolayers in complete Dulbecco's Modified Eagle's Media (DMEM, Gibco; supplemented with 10% fetal bovine serum and 1% of 5,000 units/mL of penicillin-streptomycin (pen-strep), Gibco). To generate spheroids, cells were grown in Falcon bacteriological petri dishes coated with 2% poly(2-hydroxyethyl methacrylate) dissolved in 100% ethanol. The growth media was DMEM/F12 (Gibco) supplemented with 20 ng/mL of epidermal growth factor (EGF), 5 ng/mL of fibroblast growth factor, 0.375% 100× N2 supplements (Gibco), and 1% pen-strep. Monolayer cells were dissociated using 0.25% trypsin-edta (Gibco), whereas spheroid cultures were dissociated using StemPro Accutase (Gibco). Patient derived cell lines were grown as described below in the primary lung cultures section.
Self-renewal assays. Tumor cells cultured as spheroids were dissociated and diluted in 2× sphere media containing 1% methyl cellulose, which was previously dissolved in cold DMEM/F12 media. Either 200, 500, or 1000 cells were then plated in each 96 well and were incubated in the presence or absence of drugs, as indicated. The spheres were allowed to form for a period of a week to ten days, at which point they were counted. Six biological replicates were used for quantification of the results.

## O=C(O)c1ccccc1NS(=O)(=O)c1ccc(Cl)c([N+](=O)[O-])c1 [CTPI-2]
[1]
  cell cycle effect in spheres: modestly cytostatic
[2]; co-treated with cisplatin and CTPI-2
  apoptosis: strong pro-apoptotic effect
[2]; drug alone
  apoptosis: did not induce apoptosis
[3]; monolayer differentiated cultures
  PFK activity: enhanced
[3]; spheres
  PFK activity: unchanged
[4]; monolayer cultures
  lactic acid levels: increase in lactic acid levels
[4]; monolayer cultures, after 10 mM glucose injection
  ECAR rates: starkly induced
[4]; spheres
  ECAR and lactic acid levels: remained unchanged or were slightly diminished
[5]; SLC25A1-shRNA lentivirus, live cells counted after one week
  proliferation of cells expressing the SLC25A1-shRNA: failed to inhibit proliferation
[5]; monolayer or methylcellulose single cells (FIG. 3J)
  anti-proliferative activity, ranges of concentrations: anti-proliferative activity at comparable ranges of concentrations
[6]; FIG. 2E
  sphere forming capacity, compared with CTPI-1: inhibited sphere forming capacity more efficiently than CTPI-1
[6]; sphere forming assay compared with monolayer
  activity in spheres versus 2D/monolayer cultures: significantly more prominent in spheres than in 2D cultures
